ChEMBL document CHEMBL3102804, “Synthesis, anticancer activity and DNA-binding properties of novel 4-pyrazolyl-1,8-naphthalimide derivatives” (Bioorg Med Chem Lett, 2014)
The source made the active and inactive calls. No cut-off for these calls is given here.

What was measured:
HeLa [1] = test: Cytotoxicity against human HeLa cells assessed as cell viability after 48 hrs by MTT assay; assay type: functional, cell-based
MCF7 [2] = test: Cytotoxicity against human MCF7 cells assessed as cell viability after 48 hrs by MTT assay; assay type: functional, cell-based; conditions: MCF7, 48 h
A549 [3] = test: Cytotoxicity against human A549 cells assessed as cell viability after 48 hrs by MTT assay; assay type: functional, cell-based; conditions: A549, 48 h
A549 [4] = test: Potency index, ratio of amonafide IC50 to compound IC50 for human A549 cells; assay type: functional
MCF7 [5] = test: Potency index, ratio of amonafide IC50 to compound IC50 for human MCF7 cells; assay type: functional
DNA [6] = test: Binding affinity to calf thymus DNA assessed as change in melting temperature at 5 uM by UV spectrophotometric analysis; assay type: nucleic-acid assay; conditions: Bos taurus
DNA [7] = test: Binding affinity to calf thymus DNA assessed as melting temperature at 5 uM by UV spectrophotometric analysis (reference value: 59.7 degC); assay type: nucleic-acid assay; conditions: Bos taurus
DNA [8] = test: Binding affinity to calf thymus DNA at compound to DNA ratio 0.1 to 0.5 by CD spectra analysis; assay type: nucleic-acid assay; conditions: Bos taurus
DNA [9] = test: Binding affinity to calf thymus DNA by fluorescent spectra analysis; assay type: nucleic-acid assay; conditions: Bos taurus
DNA [10] = test: Binding affinity to calf thymus DNA assessed as hypochromicity/bathochromic shift after 120 mins by UV-vis absorption spectra analysis; assay type: nucleic-acid assay; conditions: Bos taurus
HeLa [11] = test: Potency index, ratio of amonafide IC50 to compound IC50 for human HeLa cells; assay type: functional
DNA [12] = test: Binding affinity to calf thymus DNA at compound to DNA ratio >= 2 by CD spectra analysis; assay type: nucleic-acid assay; conditions: Bos taurus

SMILES | IC50 (HeLa [1]) [µM] | IC50 (MCF7 [2]) [µM] | IC50 (A549 [3]) [µM] | further results
CN(C)CCN1C(=O)c2cccc3c(-n4cccn4)ccc(c23)C1=O | 9.47 | 2.72 | > 50 | –
CN(C)CCN1C(=O)c2cccc3cc(N)cc(c23)C1=O [AMONAFIDE] | 6.71 | – | – | –
CN(C)CCN1C(=O)c2cccc3c(-n4cc(-c5ccccc5)cn4)ccc(c23)C1=O | 6.5 | 1.58 | 8.52 | –
CN(C)CCN1C(=O)c2cccc3c(-n4cc(-c5ccc(Cl)cc5)cn4)ccc(c23)C1=O | 10.6 | 4.24 | 17.2 | –
Cc1ccc(-c2cnn(-c3ccc4c5c(cccc35)C(=O)N(CCN(C)C)C4=O)c2)cc1 | 4.6 | 17 | 5.09 | Ratio IC50 (A549 [4]): 2.6
CN(C)CCN1C(=O)c2cccc3c(-n4cc(-c5ccc(Br)cc5)cn4)ccc(c23)C1=O | 3.47 | 10.7 | > 50 | –
COc1cccc(-c2cnn(-c3ccc4c5c(cccc35)C(=O)N(CCN(C)C)C4=O)c2)c1 | 14.6 | 1.99 | 12 | –
COc1ccc(-c2cnn(-c3ccc4c5c(cccc35)C(=O)N(CCN(C)C)C4=O)c2)cc1 | 4.99 | 2.62 | 7.69 | –
CN(C)CCN1C(=O)c2cccc3c(-n4cc(-c5cc(C(F)(F)F)cc(C(F)(F)F)c5)cn4)ccc(c23)C1=O | 16.6 | 3.39 | 25.4 | –
COc1cc(-c2cnn(-c3ccc4c5c(cccc35)C(=O)N(CCN(C)C)C4=O)c2)cc(OC)c1OC | 3.09 | 0.51 | 5.14 | Ratio IC50 (MCF7 [5]): 3.3; ΔTm (DNA [6]): 1.8 °C; Tm (DNA [7]): 61.5 °C; Activity (DNA [8]): Active; Kbapp (DNA [9]): 1.04 ×10⁴ /M; Kb (DNA [10]): 1.01 ×10⁴ /M; Ratio IC50 (HeLa [11]): 2.2; Activity (DNA [12]): Active; Ratio IC50 (A549 [4]): 2.5
CN(C)CCN1C(=O)c2cccc3c(-n4cc(-c5ccc(F)cc5)cn4)ccc(c23)C1=O | 3.1 | 1.56 | 24 | –
COc1ccc(-c2cnn(-c3ccc4c5c(cccc35)C(=O)N(CCN(C)C)C4=O)c2)cc1OC | 3.5 | 0.79 | 11.8 | –
CN(C)CCN1C(=O)c2cccc3c(-n4cc(-c5ccc(C(F)(F)F)cc5)cn4)ccc(c23)C1=O | 13.3 | 4.26 | 25 | –
